# Patent US6911431B1 (priority 1989, dated 2005)
# Tests used:
# [1] = system: Lewis lung carcinoma; experiment: Inhibition of Lewis lung tumor neovascularization; type: in vivo, C57BL/6 mice
# Protocol: Lewis lung carcinoma cells (5×10^7) when injected (0.1 ml) intradermally into both flanks of C57BL/6 mice (day 0) produce a visible highly vascularized tumor nodules within 7 days. By excising the tumor the degree of tumor vascularity may be determined microscopically by counting the number of large vessels radiating from the tumor mass.
# [2] = system: chicken embryo chorioallantoic membrane; experiment: Chicken embryo chorioallantoic membrane (CAM) angiogenesis assay; type: in vivo; conditions: for Inhibition of Neovascularization Grade/Range / Mean % Inhibition of Neovascularization / Inhibition of Neovascularization Grade/Mean ± SD: 48 hrs; for Inhibition of Neovascularization Grade/Mean ± SD: grade scale 0-4
# Protocol: Briefly, eight-day chicken embryos were removed from eggs and placed into sterile petri dishes. Individual filter paper disks were saturated with 7.5 μl of different stock solutions of L-Glu-L-Trp dissolved in sterile 0.14M NaCl to achieve final test concentrations of 0.001, 0.01, 0.1, 1.0, 10, 100, 500, and 1000 μg per disk. Disks were air dried and then inverted onto the surface of the respective embryos.
# In this experiment saline served as a negative control and 10 μg/disk of heparin served as a positive control. The pentapeptide Thr-Ala-Glu-Glu-Lys (TAEEK) (SEQ ID NO 7) served as a specificity control, (i.e., for possible nonspecific effects of peptides on neovascularization at the concentrations tested). Nine-12 test disks and a corresponding number of different embryos were employed for each test concentration along with […] (each) positive and negative control embryos.
# [3] = system: Sarcoma 180 tumors; experiment: Sarcoma 180 tumor size after prophylactic treatment; type: in vivo, Swiss-Webster mice
# Protocol: Neovascularization is required for tumor growth. Anti-tumor activity of L-Glu-L-Trp was evaluated at an independent contract research organization. Sarcoma 180 tumors (ATCC CCL-8 CCRF S-180 II) were induced by injecting 2×10^6 cells/0.1 ml im into each rear flank of Swiss-Webster mice. Groups consisted of 10 animals (20 tumors). L-Glu-L-Trp was administered in a single 0.1 ml dose of either 10 μg/kg, 75 μg/kg, 250 μg/kg or 1000 μg/kg. Tumor size was evaluated by surgically removing and weighing the affected limbs, and comparing the weight with the weight of normal control (non-tumor) limbs. The first prophylactic drug regimen (PDR-1) consisted of 5 consecutive daily ip injections commencing on day −5 and ending of day −1. The second prophylactic drug regimen (PDR-2) consisted of 5 consecutive daily im injections to the left rear flank (tumor site) beginning on day −5 and ending on day −1. Sarcoma 180 cells were injected im on day 0. Saline 0.1 ml served as the negative control.
# [4] = PDR-1 (ip, day −5 to −1), 10 μg/kg
# [5] = PDR-1 (ip, day −5 to −1), 75 μg/kg
# [6] = PDR-1 (ip, day −5 to −1), 250 μg/kg
# [7] = PDR-1 (ip, day −5 to −1), 1000 μg/kg
# [8] = PDR-2 (im left flank), 10 μg/kg
# [9] = PDR-2 (im left flank), 75 μg/kg
# [10] = PDR-2 (im left flank), 250 μg/kg
# [11] = PDR-2 (im left flank), 1000 μg/kg
# [12] = PDR-2 (im left rear flank, day −5 to −1), 10 μg/kg
# [13] = PDR-2 (im left rear flank, day −5 to −1), 75 μg/kg
# [14] = PDR-2 (im left rear flank, day −5 to −1), 250 μg/kg
# [15] = PDR-2 (im left rear flank, day −5 to −1), 1000 μg/kg
compound,measurement,setting,value
"O=P1(N(CCCl)CCCl)NCCCO1 (stereo not shown) [Cytoxan, reference compound]",No. Vessels (Mean ± S.D.),"[1]; Dose 200 (column head μg/kg/dose), administered only on day 2",9 ± 5
L-Glu-L-Trp,No. Vessels (Mean ± S.D.),[1]; 125 μg/kg/dose im daily for 5 days,6 ± 3
same,No. Vessels (Mean ± S.D.),[1]; 250 μg/kg/dose im daily for 5 days,7 ± 2
same,No. Vessels (Mean ± S.D.),[1]; 500 μg/kg/dose im daily for 5 days,9 ± 4
same,No. Vessels (Mean ± S.D.),[1]; 1000 μg/kg/dose im daily for 5 days,12 ± 5
same,No. Vessels (Mean ± S.D.),[1]; 2000 μg/kg/dose im daily for 5 days,17 ± 7
same,Inhibition of Neovascularization Grade/Range,[2]; 0.001 μg/disk,0-2
same,Mean % Inhibition of Neovascularization,[2]; 0.001 μg/disk,33 ± 20%
same,Inhibition of Neovascularization Grade/Mean ± SD,[2]; 0.001 μg/disk,1.3 ± 0.82
same,decrease in vascularity in embryos,[2]; 10 ng-1000 μg in saline,30-88%
same,Inhibition of Neovascularization Grade/Range,[2]; 0.01 μg/disk,1-2
same,Mean % Inhibition of Neovascularization,[2]; 0.01 μg/disk,38 ± 13%
same,Inhibition of Neovascularization Grade/Mean ± SD,[2]; 0.01 μg/disk,1.5 ± 0.53
same,Inhibition of Neovascularization Grade/Range,[2]; 0.1 μg/disk,0-3
same,Mean % Inhibition of Neovascularization,[2]; 0.1 μg/disk,48 ± 23%
same,Inhibition of Neovascularization Grade/Mean ± SD,[2]; 0.1 μg/disk,1.9 ± 0.88
same,Inhibition of Neovascularization Grade/Range,[2]; 1 μg/disk,1-4
same,Mean % Inhibition of Neovascularization,[2]; 1 μg/disk,58 ± 23%
same,Inhibition of Neovascularization Grade/Mean ± SD,[2]; 1 μg/disk,2.33 ± 0.89
same,Inhibition of Neovascularization Grade/Range,[2]; 10 μg/disk,1-4
same,Mean % Inhibition of Neovascularization,[2]; 10 μg/disk,78 ± 28%
same,Inhibition of Neovascularization Grade/Mean ± SD,[2]; 10 μg/disk,3.09 ± 1.14
same,Inhibition of Neovascularization Grade/Range,[2]; 100 μg/disk,3-4
same,Mean % Inhibition of Neovascularization,[2]; 100 μg/disk,85 ± 18%
same,Inhibition of Neovascularization Grade/Mean ± SD,[2]; 100 μg/disk,3.44 ± 0.73
same,Inhibition of Neovascularization Grade/Range,[2]; 500 μg/disk,1-4
same,Mean % Inhibition of Neovascularization,[2]; 500 μg/disk,60 ± 20%
same,Inhibition of Neovascularization Grade/Mean ± SD,[2]; 500 μg/disk,2.4 ± 0.84
same,Inhibition of Neovascularization Grade/Range,[2]; 1000 μg/disk,2-4
same,Mean % Inhibition of Neovascularization,[2]; 1000 μg/disk,83 ± 20%
same,Inhibition of Neovascularization Grade/Mean ± SD,[2]; 1000 μg/disk,3.3 ± 0.82
same,Mean Tumor Weight Left,"[3]; PDR-1 (ip), 10 μg/kg",3.0
same,Percent of Control Tumor Weight Left,"[3]; PDR-1 (ip), 10 μg/kg",120%
same,Mean Tumor Weight Right,"[3]; PDR-1 (ip), 10 μg/kg",2.9
same,Percent of Control Tumor Weight Right,"[3]; PDR-1 (ip), 10 μg/kg",126%
same,Mean Tumor Weight Left,"[3]; PDR-1 (ip), 75 μg/kg",3.0
same,Percent of Control Tumor Weight Left,"[3]; PDR-1 (ip), 75 μg/kg",120%
same,Mean Tumor Weight Right,"[3]; PDR-1 (ip), 75 μg/kg",3.0
same,Percent of Control Tumor Weight Right,"[3]; PDR-1 (ip), 75 μg/kg",130%
same,Mean Tumor Weight Left,"[3]; PDR-1 (ip), 250 μg/kg",2.3
same,Percent of Control Tumor Weight Left,"[3]; PDR-1 (ip), 250 μg/kg",92%
same,Mean Tumor Weight Right,"[3]; PDR-1 (ip), 250 μg/kg",1.9
same,Percent of Control Tumor Weight Right,"[3]; PDR-1 (ip), 250 μg/kg",83%
same,Mean Tumor Weight Left,"[3]; PDR-1 (ip), 1000 μg/kg",1.3
same,Percent of Control Tumor Weight Left,"[3]; PDR-1 (ip), 1000 μg/kg",52%
same,Mean Tumor Weight Right,"[3]; PDR-1 (ip), 1000 μg/kg",1.0
same,Percent of Control Tumor Weight Right,"[3]; PDR-1 (ip), 1000 μg/kg",43%
same,Leg Weight Left,[3]; [4],4.2 ± 0.9 g
same,Leg Weight Right,[3]; [4],4.1 ± 0.7 g
same,Leg Weight Left,[3]; [5],4.2 ± 0.8 g
same,Leg Weight Right,[3]; [5],4.2 ± 0.8 g
same,Leg Weight Left,[3]; [6],3.5 ± 1.0 g
same,Leg Weight Right,[3]; [6],3.1 ± 0.6 g
same,Leg Weight Left,[3]; [7],2.5 ± 0.7 g
same,Leg Weight Right,[3]; [7],2.2 ± 0.5 g
same,Mean Tumor Weight Left,[3]; [8],2.4
same,Percent of Control Tumor Weight Left,[3]; [8],96%
same,Mean Tumor Weight Right,[3]; [8],2.6
same,Percent of Control Tumor Weight Right,[3]; [8],113%
same,Mean Tumor Weight Left,[3]; [9],2.4
same,Percent of Control Tumor Weight Left,[3]; [9],96%
same,Mean Tumor Weight Right,[3]; [9],3.3
same,Percent of Control Tumor Weight Right,[3]; [9],143%
same,Mean Tumor Weight Left,[3]; [10],1.8
same,Percent of Control Tumor Weight Left,[3]; [10],72%
same,Mean Tumor Weight Right,[3]; [10],1.1
same,Percent of Control Tumor Weight Right,[3]; [10],48%
same,Mean Tumor Weight Left,[3]; [11],1.2
same,Percent of Control Tumor Weight Left,[3]; [11],48%
same,Mean Tumor Weight Right,[3]; [11],1.3
same,Percent of Control Tumor Weight Right,[3]; [11],57%
same,Leg Weight Left,[3]; [12],3.6 ± 0.7 g
same,Leg Weight Right,[3]; [12],3.8 ± 0.7 g
same,Leg Weight Left,[3]; [13],3.6 ± 0.7 g
same,Leg Weight Right,[3]; [13],3.5 ± 0.3 g
same,Leg Weight Left,[3]; [14],3.0 ± 0.1 g
same,Leg Weight Right,[3]; [14],2.3 ± 0.5 g
same,Leg Weight Left,[3]; [15],2.4 ± 0.5 g
same,Leg Weight Right,[3]; [15],2.5 ± 0.5 g
Thr-Ala-Glu-Glu-Lys (TAEEK) [pentapeptide specificity control],Inhibition of Neovascularization Grade/Range,[2]; 0.001 μg/disk,0-0
same,Mean % Inhibition of Neovascularization,[2]; 0.001 μg/disk,0%
same,Inhibition of Neovascularization Grade/Mean ± SD,[2]; 0.001 μg/disk,0 ± 0
same,Inhibition of Neovascularization Grade/Range,[2]; 0.01 μg/disk,0-0
same,Mean % Inhibition of Neovascularization,[2]; 0.01 μg/disk,0%
same,Inhibition of Neovascularization Grade/Mean ± SD,[2]; 0.01 μg/disk,0 ± 0
same,Inhibition of Neovascularization Grade/Range,[2]; 0.1 μg/disk,0-0
same,Mean % Inhibition of Neovascularization,[2]; 0.1 μg/disk,0%
same,Inhibition of Neovascularization Grade/Mean ± SD,[2]; 0.1 μg/disk,0 ± 0
same,Inhibition of Neovascularization Grade/Range,[2]; 1 μg/disk,0-1
same,Mean % Inhibition of Neovascularization,[2]; 1 μg/disk,8 ± 10%
same,Inhibition of Neovascularization Grade/Mean ± SD,[2]; 1 μg/disk,0.33 ± 0.49
same,Inhibition of Neovascularization Grade/Range,[2]; 10 μg/disk,0-1
same,Mean % Inhibition of Neovascularization,[2]; 10 μg/disk,5 ± 10%
same,Inhibition of Neovascularization Grade/Mean ± SD,[2]; 10 μg/disk,0.18 ± 0.40
same,Inhibition of Neovascularization Grade/Range,[2]; 100 μg/disk,0-2
same,Mean % Inhibition of Neovascularization,[2]; 100 μg/disk,18 ± 23%
same,Inhibition of Neovascularization Grade/Mean ± SD,[2]; 100 μg/disk,0.67 ± 0.87
same,Inhibition of Neovascularization Grade/Range,[2]; 500 μg/disk,0-1
same,Mean % Inhibition of Neovascularization,[2]; 500 μg/disk,9 ± 13%
same,Inhibition of Neovascularization Grade/Mean ± SD,[2]; 500 μg/disk,0.3 ± 0.48
same,Inhibition of Neovascularization Grade/Range,[2]; 1000 μg/disk,0-2
same,Mean % Inhibition of Neovascularization,[2]; 1000 μg/disk,18 ± 20%
same,Inhibition of Neovascularization Grade/Mean ± SD,[2]; 1000 μg/disk,0.7 ± 0.82
heparin,Inhibition of Neovascularization Grade/Range,[2]; 10 μg/disk,1-4
same,Mean % Inhibition of Neovascularization,[2]; 10 μg/disk,81 ± 18%
same,Inhibition of Neovascularization Grade/Mean ± SD,[2]; 10 μg/disk,3.26 ± 0.73
